A word on the MTD: it is the highest dose tested that stayed within the study's limit of toxicity.

Series [1] has as its system patient-derived PDAC xenograft XWR #187. As to conditions: mouse, in vivo, 50 mg/kg.
Series [2] concerns KPC-derived orthotopic tumor. As to conditions: mouse, in vivo. The text has this:
This stringent PDAC tumor model mimics human PDAC for oncogene expression, growth characteristics, metastasis, histological features and development of a dysplastic stroma. […] Imaging intensity was quantified by IVIS Lumina Living Image software.

Series [3] can be described thus: Liver and intestinal toxicity (H&E, cleaved caspase-3 IHC). As to conditions: animals of efficacy study, 40 mg/kg every 4 days.
The conditions of series [4]: human, in vivo; cited from earlier work.
For another series, the system named is BxPC-3 cells. Put plainly: MTS cytotoxicity assay. The series is classed as cell-based. As to conditions: BxPC3, incremental irinotecan concentrations, 24-72 hours.
Series [5] in a line: Bone marrow toxicity and differential white cell count. The series is classed as in vivo, mice. As to conditions: 40 mg/kg IV x3, 2 days apart; listed as free drug, hydrochloride trihydrate. How it is done: Bone marrow toxicity was studied in a separate experiment, in which animals received three injections of a 40 mg/kg irinotecan dose equivalent, as described above. After sacrifice, sternal bone marrow was collected to evaluate myelotoxicity by H&E staining (FIG. 4D) (Iusuf et al. (2014) Mol. Cancer Ther. 13: 492-503).

Series [6] is described as follows: Acute histological analysis after single IV dose (Example 2). Conditions: 60 mg/kg single IV, 24 hours; for kidney histology: hydrochloride trihydrate.
Series [7] relates to KPC-derived orthotopic tumors. Briefly: Efficacy assessment in KPC-derived orthotopic model. Conditions: 40 mg/kg IV every 4 days.
A short description of series [8]: Maximum tolerated dose (NCI protocol). As to conditions: male, BALB/c, mouse, in vivo; Example 1; healthy mice, IV, validated in six mice over 15 days. How it is done:
. Two healthy male BALB/c mice were IV injected with a 50 mg/kg (C1 dose) equivalent of free or encapsulated irinotecan. This was followed by a dose escalation factor of 1.8 to obtain the Cn dose, which results in animal death within 24 h after the last administration. The second round of dose-seeking began with the Cn-1 dose and utilized a 1.15 escalation factor (n=2) to find the MTD, which is defined as the absence of mortality or morbidity. The MTD was validated by injecting six mice, which were followed for 15 days to determine the absence of morbidity, mortality, or >15% weight loss.
. Two healthy male BALB/c mice were IV injected with 50 mg/kg (C1 dose) free or encapsulated drug. We then used a dose escalation factor of 1.8 to determine the Cn dose where both animals (n=2) died within 24 hours. After treatment with free or encapsulated irinotecan. The second round of dose-seeking began with Cn-1 dose, and utilized a 1.15 escalation factor (n=2) to find the MTD, where there was no mortality or serious morbidity. The MTD was further validated by injecting […], and following them for 15 days to ascertain that there was no morbidity, mortality or […]. […].

The next series relates to PANC-1 cells. Briefly: MTS cytotoxicity assay. The series is classed as cell-based. Conditions: PANC-1, incremental irinotecan concentrations, 24-72 hours. Background: Formazan colour is commonly taken as a measure of viable cells.
The subject of the next series is PDAC. Conditions: PDAC patients; cited from earlier work.

“Also recorded” adds a separate entry of the source. Structures can show the parent of a compound that is named as a salt.

Turning to `N=C(N)NCCC[C@@H]1NC(=O)[C@@H](N)CSSC[C@@H](C(=O)O)NC(=O)[C@H](CC(=O)O)NC(=O)[C@@H]2CCCN2C(=O)CNC(=O)[C@H](CCCCN)NC(=O)[C@H](CC(=O)O)NC(=O)CNC1=O` [iRGD], the “increase of NIR intensity at the tumor site” value in series [1] is 50%. Further, in series [2], the “enhancement of silicasome uptake at orthotopic tumor site by co-administration” value is 3-4 fold; the “intratumoral particle abundance and traveling distance from blood vessels” value was “most effective strategy to enhance silicasome uptake”.

Consider `CCc1c2c(nc3ccc(OC(=O)N4CCC(N5CCCCC5)CC4)cc13)-c1cc3c(c(=O)n1C2)COC(=O)[C@]3(O)CC` [free irinotecan, Irinotecan hydrochloride trihydrate], for which the “liver histology (H&E)” value in series [3] is “severe and extensive hepatocyte necrosis”. Besides, the “G.I.T. adverse effects (vomiting, diarrhea, nausea, anorexia)” value in series [4] is listed as ~50 % of patients. The incidence of neutropenia in series [4] is roughly 60%. For the same molecule, the “cell killing (MTS)” value in the series on BxPC-3 cells and with PANC-1 cells was “more effective in killing over 24 hours” in each case. Besides, in [5], the “peripheral blood neutrophil count” value is “significant decrease of the absolute neutrophil count; also recorded: peripheral blood neutropenia”. Besides, the “bone marrow toxicity (H&E histology)” value in [6] is “Severe bone marrow damage and apoptosis”. For the same molecule, the kidney histology result in [6] (listed as Free irinotecan) was “nephrotoxicity”; in [6] (listed as free IRIN), “swelling and edema of Bowman's space”. In addition, the “effect on metastasis (ex vivo bioluminescence)” value in [7] is given as “failed to affect metastasis”. The same molecule came in with an MTD at 15 days in series [8] of 60 mg/kg.

For `Nc1ccn([C@@H]2O[C@H](CO)[C@@H](O)C2(F)F)c(=O)n1` [GEM, gemcitabine], in the series with PDAC, the response rate is listed as 9.4% and the survival is 6.8 months.

With FOLFIRINOX, in the series with PDAC, the response rate was 31.6% and the survival is roughly 11 months.

Source of the values: patent publication US12171884B2, “Mesoporous silica nanoparticles with lipid bilayer coating for cargo delivery” (priority 2016, dated 2024).
